This note sets out measurements from ChEMBL document CHEMBL1201862, “PubChem BioAssay data set” (2004).

Holding throughout (assay): DTP human tumour cell line panel, 48 h
Experiment [1] relates to A498.
Experiment [2] has as its system SF-539.
Experiment [3] relates to SF-295.
Experiment [4] concerns U-251.
Experiment [5] concerns EKVX.
The test system of experiment [6] is SK-OV-3.
Experiment [7] concerns SN12C.
In experiment [8] the test system is HCT-116.
In experiment [9] the test system is HT-29.
Experiment [10] deals with MCF7.
Experiment [11] relates to A549.
For experiment [12], the system named is SK-MEL-2.
In experiment [13] the test system is Malme-3M.
In experiment [14] the test system is NCI-H23.
Experiment [15] relates to K562.
Experiment [16] deals with SNB-75.
For experiment [17], the system named is NCI-H226.

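Cells were grown in 96-well plates and exposed to each compound for 48 hours at five concentrations; endpoints were interpolated linearly between bracketing concentrations, or set to the highest concentration if not reached. GI50 = concentration required for 50% inhibition of growth.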 Activity calls are given as the source filed them. Cut-off read from the data, not from the text of the source: active = GI50 up to about 1.1 µM and inactive = higher.

One may read the GI50 as the concentration that inhibits growth by half. For `O=C1C[C@H]2[C@@H](O1)[C@@H](O)CN1C(=O)c3ccccc3[C@H]21`, the GI50 in [1], in experiment [2], in experiment [3], in experiment [4], in [5] and in [6] was > 100 µM (inactive) each time. Besides, the GI50 in [7], in experiment [8], in experiment [9], in [10], in [11] and in experiment [12] was > 100 µM (inactive) in each case. The GI50 in experiment [13], in experiment [14], in experiment [15], in [16] and in experiment [17] was > 100 µM (inactive) in each case.
Regarding `O=C1N[C@@H](c2c[nH]c3ccc(Br)cc23)C(=O)N[C@H]1c1c[nH]c2ccc(Br)cc12`, the GI50 is 5.24 µM (inactive) in experiment [1]; 5.21 µM (inactive) in [2]; 11.9 µM (inactive) in experiment [3]; 9.35 µM (inactive) in experiment [4]; 13 µM (inactive) in experiment [5]; 15.9 µM (inactive) in experiment [6]. Also, the GI50 in [7] is 12.4 µM (inactive); in experiment [8], 7.93 µM (inactive); in experiment [9] it was 7.5 µM (inactive); in [10], 12.6 µM (inactive); in [11], 13.8 µM (inactive); in [12], 13.6 µM (inactive). For the same molecule, the GI50 in experiment [13] is 14.4 µM (inactive); in experiment [14] it was 10.6 µM (inactive); in experiment [15] it was 4.47 µM (inactive); in experiment [16] it was 1.55 µM (inactive); in experiment [17], 10.8 µM (inactive).
Turning to `COc1ccc(-c2cc(=O)c3c(OC)c(OC)c(OC)c(OC)c3o2)cc1` [TANGERETIN], the GI50 is 22.8 µM (inactive) in experiment [1]; > 100 µM (inactive) in experiment [2]; 55.3 µM (inactive) in experiment [3]; 91 µM (inactive) in experiment [4]; 49.1 µM (inactive) in [5]; 99.8 µM (inactive) in experiment [6]. Besides, the GI50 is 65.2 µM (inactive) in experiment [7]; 34 µM (inactive) in [8]; 35.2 µM (inactive) in [9]; > 100 µM (inactive) in experiment [10]; 51.6 µM (inactive) in experiment [11]; 90.6 µM (inactive) in experiment [12]. The GI50 was 84.1 µM (inactive) in experiment [13]; 43.3 µM (inactive) in [14]; 37.8 µM (inactive) in [15]; 46.8 µM (inactive) in [16]; 64.7 µM (inactive) in [17].
Regarding `CC1(C)C2CCC1(C)C(N/C(Sc1ccccc1)=C(/C(Cl)=C(Cl)Cl)[N+](=O)[O-])C2` (stereo unspecified), the GI50 in experiment [1] is 15 µM (inactive); in experiment [2], 13.5 µM (inactive); in [3], 13.1 µM (inactive); in [4] it was 11.4 µM (inactive); in experiment [5], 13.4 µM (inactive); in experiment [6], 13.8 µM (inactive). The GI50 in [7] was 13.9 µM (inactive); in [8], 15.5 µM (inactive); in experiment [9], 10.4 µM (inactive); in experiment [10], 11.2 µM (inactive); in experiment [11], 14.5 µM (inactive); in experiment [12], 12.5 µM (inactive). The GI50 in [13] is 15.1 µM (inactive); in experiment [14] it was 12.3 µM (inactive); in experiment [15], 6.35 µM (inactive); in experiment [16], 15.6 µM (inactive); in experiment [17], 16.8 µM (inactive).
Consider `O=C/C=C/c1ccco1`, for which the GI50 in [1] is > 100 µM (inactive); in experiment [2], 94.8 µM (inactive); in experiment [3], 61.8 µM (inactive); in experiment [4], 96.8 µM (inactive); in experiment [5] it was > 100 µM (inactive); in [6] it was > 100 µM (inactive). Also, the GI50 in [7], in experiment [8], in [9], in experiment [10], in experiment [11] and in experiment [12] was > 100 µM (inactive) each time. Further, the GI50 in experiment [13], in experiment [14], in experiment [15], in experiment [16] and in experiment [17] was > 100 µM (inactive) throughout.
`O=C1c2ccccc2C(=O)c2c(OCC3CO3)ccc(OCC3CO3)c21` (stereo unspecified): the GI50 in [1] was 17.9 µM (inactive); in [2], 4.15 µM (inactive); in experiment [3], 2.28 µM (inactive); in experiment [4] it was 2.92 µM (inactive); in experiment [5], 12.5 µM (inactive); in [6], 12.4 µM (inactive). Besides, the GI50 in experiment [7] is 1.07 µM (active); in experiment [8] it was 1.99 µM (inactive); in experiment [9] it was 4.84 µM (inactive); in experiment [10], 0.195 µM (active); in experiment [11] it was 3.46 µM (inactive); in experiment [12] it was 14 µM (inactive). The GI50 is 7.74 µM (inactive) in experiment [13]; 4.12 µM (inactive) in experiment [14]; 0.982 µM (active) in experiment [15]; 12.4 µM (inactive) in experiment [16]; 12.4 µM (inactive) in [17].
Take `CC(CN(C)C)C(O)(c1ccccc1)c1ccccc1` (stereo unspecified): the GI50 in [1], in experiment [2], in experiment [3], in experiment [4], in [5] and in experiment [6] was > 100 µM (inactive) in each case. The GI50 in experiment [7], in experiment [8], in experiment [9], in experiment [10], in [11] and in experiment [12] was > 100 µM (inactive) each time. Besides, the GI50 in experiment [13], in experiment [14], in experiment [15], in [16] and in [17] was > 100 µM (inactive) in each case.
Consider `COC(=O)c1ccc(C)cc1CC1Cc2cc(C)ccc2C1=O` (stereo unspecified), for which the GI50 in [1], in experiment [2], in experiment [3], in experiment [4], in experiment [5] and in experiment [6] was > 100 µM (inactive) in each case. Also, the GI50 in experiment [7], in [8], in experiment [9], in experiment [10], in experiment [11] and in experiment [12] was > 100 µM (inactive) in each case. The GI50 in experiment [13], in experiment [14], in experiment [15], in [16] and in experiment [17] was > 100 µM (inactive) each time.
